The values below are quoted from earlier work in patent publication US10993951B2, “Fosfomycin formulation for parenteral administration” (priority 2016, dated 2021).

For the series the following is noted: cited from earlier work.

Structures are written as SMILES. Counter-ions that a name gives are not always drawn.

In the case of `C[C@@H]1O[C@@H]1P(=O)(O)O` [Fosfomycin disodium salt, fosfomycin disodium salt], the solubility in water result is on record as “highly soluble”.
